Experimental data as given in US20120027687A1, “FATTY ACID PROTEIN KINASE C ACTIVATORS AND ANTICOAGULANT FOR THE TREATMENT OF STROKE” (priority 2010, published 2012).

Key:
[1] = test system: Aβ; test: Aβ production in N2a neuroblastoma cells transfected with human APPSwe/PSID; type: cell-based, mouse; settings: 24 hours
Protocol: Cell culture. Rat hippocampal H19-7/IGF-IR cells (ATCC, Manassas, Va.) were plated onto poly-L-lysine coated plates and grown at 35° C. in DMEM/10% FCS for several days until about 50% coverage was obtained. The cells were then induced to differentiate into a neuronal phenotype by replacing the medium with 5 ml N2 medium containing 10 ng/ml basic fibroblast growth factor at 39° C. and grown in T-75 flasks at 37° C. Human SH-SY5Y neuroblastoma cells (ATCC) were cultured in 45% F12K/45% MEM/10% FCS. Mouse N2A neuroblastoma cells were cultured in DMEM/10% FCS without glutamine. Rat hippocampal neurons from 18-day-old embryonic Sprague Dawley rat brains were plated on 12- or 96-well plates coated with poly-D-lysine (Sigma-Aldrich, St. Louis, Mo.) in B-27 neurobasal medium containing 0.5 mM glutamine and 25 μM glutamate (Invitrogen, Carlsbad, Calif.) and cultured for three days in the medium without glutamate. The neuronal cells were grown under 5% CO2 in an incubator maintained at 37° C. for 14 days.
Aβ Measurement and Cell Viability Assay. Aβ was measured using an Aβ 1-42 human fluorimetric ELISA kit (Invitrogen) according to the manufacturer's instructions. Results were measured in a Biotek Synergy HT microplate reader. AlamarBlue and CyQuant NF (Invitrogen) according to the manufacturer's instructions.
To measure the effects of PKCε activation on Aβ production, mouse neuro2a (N2a) neuroblastoma cells transfected with human APPSwe/PSID were used, which produce large quantities of Aβ. Petanceska et al., J. Neurochem. (1996), vol. 74, pp. 1878-1884. […] With bryostatin, which activates PKC by binding to the diacylglycerol-binding site, the inhibition was biphasic with concentrations of 20 nM or higher producing no net effect. This may be explained by the ability of this class of PKC activators to downregulate PKC when used at high concentrations.

[2] = test system: Endothelin-converting enzyme (ECE); test: Endothelin-converting enzyme (ECE) activity in neuroblastoma cells; type: cell-based, human; settings: bryostatin 0.27 nM, BR-101 1 μM, BR-111 1 μM
Protocol: ECE assay. […] neuroblastoma cells were incubated with bryostatin (0.27 nM), BR-101 (DCP-LA) (1 μM), and BR-111 (DHA-CP6) (1 μM). Endothelin-converting enzyme (ECE) was measured fluorimetrically using the method of Johnson and Ahn (Anal. Biochem. (2000), vol. 286, pp. 112-118). A sample of cell homogenate (20 μl) was incubated in 50 mM MES-KOH, pH 6.0, 0.01% C12E10 (polyoxyethylene-10-lauryl ether), and 15 μM McaBK2 (7-Methoxycoumarin-4-acetyl [Ala7-(2,4-Dinitrophenyl)Lys9]-bradykinin trifluoroacetate salt) (Sigma-Aldrich). After 60 min at 37° C., the reaction was quenched by adding trifluoroacetic acid to 0.5%. The sample was diluted to 1.4 ml with water and the fluorescence was measured at ex=334 nm, em=398 nm.

[3] = molecular target: T1, PKCδ (Homo sapiens, UniProt Q05655); test: PKC assay with purified PKCδ; type: biochemical; settings: about 1-100 μM, data not shown
T1 construct: purchased Calbiochem
T1 sequence (Q05655 whole entry): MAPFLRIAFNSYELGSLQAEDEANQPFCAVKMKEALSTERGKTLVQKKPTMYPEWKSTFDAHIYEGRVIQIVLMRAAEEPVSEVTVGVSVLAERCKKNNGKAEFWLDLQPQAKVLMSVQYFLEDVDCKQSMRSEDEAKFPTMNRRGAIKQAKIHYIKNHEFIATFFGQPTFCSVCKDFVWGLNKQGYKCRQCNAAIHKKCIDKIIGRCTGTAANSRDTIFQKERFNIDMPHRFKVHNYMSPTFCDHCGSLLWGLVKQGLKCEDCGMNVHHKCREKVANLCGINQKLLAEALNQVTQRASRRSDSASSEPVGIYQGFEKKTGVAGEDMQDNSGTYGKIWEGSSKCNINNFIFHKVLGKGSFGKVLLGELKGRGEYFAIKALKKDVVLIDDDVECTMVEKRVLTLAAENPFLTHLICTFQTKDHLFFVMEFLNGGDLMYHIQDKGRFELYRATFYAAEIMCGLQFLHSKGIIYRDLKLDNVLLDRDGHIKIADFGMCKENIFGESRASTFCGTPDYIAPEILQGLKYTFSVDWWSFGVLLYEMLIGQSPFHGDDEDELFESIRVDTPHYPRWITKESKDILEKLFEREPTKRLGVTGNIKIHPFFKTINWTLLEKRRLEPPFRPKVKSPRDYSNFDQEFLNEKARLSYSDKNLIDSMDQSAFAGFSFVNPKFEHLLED
Protocol: Protein kinase C assay. Rat hippocampal cells were cultured and scraped in 0.2 ml homogenization buffer (20 mM Tris-HCl, pH 7.4, 50 mM NaF, 1 μg/ml leupeptin, and 0.1 mM PMSF) and homogenized by sonication a Marsonix microprobe sonicator (5 sec, 10W). To measure PKC, 10 μl of cell homogenate or purified PKC isozyme (purchased from Calbiochem) was incubated for 15 min at 37° C. in the presence of 10 μM histones, 4.89 mM CaCl2, 1.2 μg/μl phosphatidyl-L-serine, 0.18 μg/μl 1,2-dioctanoyl-sn-glycerol, 10 mM MgCl2, 20 mM HEPES (pH 7.4), 0.8 mM EDTA, 4 mM EGTA, 4% glycerol, 8 μg/ml aprotinin, 8 μg/ml leupeptin, and 2 mM benzamidine. 0.5 Ci [^γ32P]ATP was added and ^32P-phosphoprotein formation was measured by adsorption onto phosphocellulose as described previously. Nelson and Alkon, J. Neurochemistry (1995), vol. 65, pp. 2350-2357. For measurements of activation by BR-101 (DCP-LA) and similar compounds. PKC activity was measured in the absence of diacylglycerol and phosphatidylserine and PKC δ, ε, η, and μ were measured in the absence of added EGTA and CaCl2, as described by Kanno et al. (J. Lipid Res. 2006, vol. 47, pp. 1146-1150). […]
(§1) To determine their PKC isozyme specificity, fatty acid derivatives were preincubated with purified PKC for five minutes and the PKC activity was measured radiometrically.

[4] = molecular target: T2, PKCα (Homo sapiens, UniProt P17252); test: PKC assay with PKCα; type: biochemical; settings: data not shown
T2 construct: purchased Calbiochem
Protocol: PKC assay. Recombinant PKC (1 ng of PKCα or PKCε isoform) was mixed with BR-101 (DCP-LA) in the presence of 10 micromolar histones, 5 mM CaCl2, 1.2 μg/μl phosphatidyl-L-serine, 0.18 μg/μl 1,2-dioctanoyl-sn-glycerol (DAG), 10 mM MgCl2, 20 mM HEPES (pH 7.4), 0.8 mM EDTA, 4 mM EGTA, 4% glycerol, 8 μg/ml aprotinin, 8 μg/ml leupeptin, and 2 mM benzamidine. 0.5 micro Ci[^γ32P]ATP was added. The incubation mixture was incubated for 15 min at 37 degrees in a total volume of 10 microliters. The reaction was stopped by spotting the reaction mixtures on 1×2 cm strips of cellulose phosphate paper (Whatman P81) and immediately washing twice for 1 hr in 0.5% H3PO4. The cellulose phosphate strips were counted in a scintillation counter. In some experiments, phosphatidylserine, diacylglycerol, and/or calcium were removed.
Protein kinase C assay. […] 0.5 Ci [^γ32P]ATP was added and ^32P-phosphoprotein formation was measured by adsorption onto phosphocellulose as described previously. […] PKC activity was measured in the absence of diacylglycerol and phosphatidylserine and PKC δ, ε, η, and μ were measured in the absence of added EGTA and CaCl2, as described by Kanno et al. (J. Lipid Res. 2006, vol. 47, pp. 1146-1150). […]
as §1

With `CCCCCC1CC1CC1CC1CCCCCCCC(=O)O` (stereo not shown) [BR-101, 2-[(2-pentylcyclopropyl)methyl]cyclopropaneoctanoic acid] the “levels of intracellular Aβ” value ([1]; various concentrations) was “markedly reduced”, the “levels of secreted Aβ” value ([1]; various concentrations) was “markedly reduced” and the “concentration dependence of Aβ inhibition” value ([1]; fatty acid derivatives up to 10 μM to 100 μM) was “monotonically increasing inhibition”. The ECE activity [2] was “sustained increase”, the “effect on PKCδ at higher concentrations” value [3] was “partially inhibited” and the “effect on PKCα at higher concentrations” value ([4]; 50-100 μM) was “activated”. For the same compound, the “effect on PKCα” value [4] was “not affected”.
